In one assay the target is T1, 5-HT3A receptor F226C (Homo sapiens, UniProt P46098, F221C).
T1 construct: expressed in transfected cells; host or cells: HEK 293
The experiment in a line: Saturation binding of [^3H]VUF10166 at 5-HT3A receptor mutant. The settings on record: F226C, Loop C; read-out: Kd (nM) Mean ± SEM. The method, then:
(§1) Mutagenesis was performed using the QuikChange method (Agilent Technologies Inc., California, USA) on human 5-HT3A cDNA (accession number: P46098) cloned into pcDNA3.1 (Invitrogen, Paisley, UK). Cysteine residues were substituted for amino acids throughout each of the binding loops A–E (Fig. 1). To facilitate comparisons with previous work, we use the numbering of the equivalent residues in the mouse 5-HT3A subunit; for human numbering 5 should be subtracted from each residue number.
(§2) All data were analysed using GraphPad Prism 4.03. […].

The next assay has as its target T2, 5-HT3A receptor L126C (Homo sapiens, UniProt P46098, L121C).
T2 construct: expressed in transfected cells; host or cells: HEK 293
The assay is described as above. The settings on record: L126C, Loop A; read-out: Kd (nM) Mean ± SEM. The method, then: as §1, §2

A further assay has as its target T3, 5-HT3A receptor Y153C (Homo sapiens, UniProt P46098, Y148C).
T3 construct: expressed in transfected cells; host or cells: HEK 293
Described as above. As to conditions: Y153C, Loop E; read-out: Kd (nM) Mean ± SEM. How it is done:
as §1, §2

The next assay has as its target T4, 5-HT3A receptor D189C (Homo sapiens, UniProt P46098, D184C).
T4 construct: expressed in transfected cells; host or cells: HEK 293
The description is as above. The settings on record: Loop B, read-out: Kd (nM) Mean ± SEM. The method, then:
as §1
(§3) All data were analysed using GraphPad Prism 4.03.

Another assay addresses T5, 5-HT3A receptor E129C (Homo sapiens, UniProt P46098, E124C).
T5 construct: expressed in transfected cells; host or cells: HEK 293
The assay is described as above. The settings on record: Loop A, read-out: Kd (nM) Mean ± SEM. How it is done:
as §1, §3

The target in another assay is T6, 5-HT3A receptor E236C (Homo sapiens, UniProt P46098, E231C).
T6 construct: expressed in transfected cells; host or cells: HEK 293
T6 sequence (P46098 24-478 E231C): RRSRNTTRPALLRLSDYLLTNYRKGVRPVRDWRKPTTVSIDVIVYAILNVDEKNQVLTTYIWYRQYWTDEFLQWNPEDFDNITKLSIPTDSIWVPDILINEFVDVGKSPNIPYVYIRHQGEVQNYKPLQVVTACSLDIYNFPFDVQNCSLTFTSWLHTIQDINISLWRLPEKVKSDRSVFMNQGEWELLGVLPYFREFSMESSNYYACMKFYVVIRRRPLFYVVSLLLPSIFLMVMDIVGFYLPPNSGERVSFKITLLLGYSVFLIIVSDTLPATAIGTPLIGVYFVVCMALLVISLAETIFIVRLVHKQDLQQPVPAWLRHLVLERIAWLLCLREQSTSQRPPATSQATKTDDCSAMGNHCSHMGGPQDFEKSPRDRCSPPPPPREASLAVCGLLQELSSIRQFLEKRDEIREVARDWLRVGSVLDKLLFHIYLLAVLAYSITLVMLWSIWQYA
Described as above. The settings on record: Loop C, read-out: Kd (nM) Mean ± SEM. How it is done: as §1, §3

The next assay addresses T7, 5-HT3A receptor H185C (Homo sapiens, UniProt P46098, H180C).
T7 construct: expressed in transfected cells; host or cells: HEK 293
The description is as above. As to conditions: H185C, Loop B; read-out: Kd (nM) Mean ± SEM. How it is done: as §1, §3

The target of the next assay is T8, 5-HT3A receptor I71C (Homo sapiens, UniProt P46098, I66C).
T8 construct: expressed in transfected cells; host or cells: HEK 293
T8 sequence (P46098 24-478 I66C): as the sequence (P46098 24-478 E231C) above, with I43C, C208E counted along it
The description is as above. As to conditions: I71C; read-out: Kd (nM) Mean ± SEM. The method, then:
as §1, §3

Another assay concerns the target T9, 5-HT3A receptor K112C (Homo sapiens, UniProt P46098, K107C).
T9 construct: expressed in transfected cells; host or cells: HEK 293
Described as above. As to conditions: K112C; read-out: Kd (nM) Mean ± SEM. How it is done:
as §1, §3

The target of a further assay is T10, 5-HT3A receptor N128C (Homo sapiens, UniProt P46098, N123C).
T10 construct: expressed in transfected cells; host or cells: HEK 293
T10 sequence (P46098 24-478 N123C): as the sequence (P46098 24-478 E231C) above, with N100C, C208E counted along it
Described as above. As to conditions: N128C, Loop A; read-out: Kd (nM) Mean ± SEM. How it is done: as §1, §3

For a further assay, the target named is T11, 5-HT3A receptor Q151C (Homo sapiens, UniProt P46098, Q146C).
T11 construct: expressed in transfected cells; host or cells: HEK 293
T11 sequence (P46098 24-478 Q146C): as the sequence (P46098 24-478 E231C) above, with Q123C, C208E counted along it
Described as above. The settings on record: Q151C, Loop E; read-out: Kd (nM) Mean ± SEM. The method, then: as §1, §3

The target in another assay is T12, 5-HT3A receptor R145C (Homo sapiens, UniProt P46098, R140C).
T12 construct: expressed in transfected cells; host or cells: HEK 293
T12 sequence (P46098 24-478 R140C): as the sequence (P46098 24-478 E231C) above, with R117C, C208E counted along it
The assay is described as above. As to conditions: R145C, Loop E; read-out: Kd (nM) Mean ± SEM. The method, then: as §1, §3

In the next assay the target is T13, 5-HT3A receptor T179C (Homo sapiens, UniProt P46098, T174C).
T13 construct: expressed in transfected cells; host or cells: HEK 293
T13 sequence (P46098 24-478 T174C): as the sequence (P46098 24-478 E231C) above, with T151C, C208E counted along it
The description is as above. The settings on record: Loop B, read-out: Kd (nM) Mean ± SEM. How it is done: as §1, §3

In another assay the target is T14, 5-HT3A receptor W183C (Homo sapiens, UniProt P46098, W178C).
T14 construct: expressed in transfected cells; host or cells: HEK 293
T14 sequence (P46098 24-478 W178C): as the sequence (P46098 24-478 E231C) above, with W155C, C208E counted along it
The assay is described as above. As to conditions: Loop B, read-out: Kd (nM) Mean ± SEM. The method, then:
as §1, §3

For a further assay, the target named is T15, 5-HT3A receptor W90C (Homo sapiens, UniProt P46098, W85C).
T15 construct: expressed in transfected cells; host or cells: HEK 293
T15 sequence (P46098 24-478 W85C): as the sequence (P46098 24-478 E231C) above, with W62C, C208E counted along it
Described as above. As to conditions: Loop D, read-out: Kd (nM) Mean ± SEM. The method, then: as §1, §3

The target in the next assay is T16, 5-HT3A receptor Y143C (Homo sapiens, UniProt P46098, Y138C).
T16 construct: expressed in transfected cells; host or cells: HEK 293
T16 sequence (P46098 24-478 Y138C): as the sequence (P46098 24-478 E231C) above, with Y115C, C208E counted along it
Described as above. The settings on record: Loop E, read-out: Kd (nM) Mean ± SEM. The method, then:
as §1, §3

A further assay addresses T17, 5-HT3A receptors (Homo sapiens, UniProt P46098).
T17 sequence (P46098 24-478): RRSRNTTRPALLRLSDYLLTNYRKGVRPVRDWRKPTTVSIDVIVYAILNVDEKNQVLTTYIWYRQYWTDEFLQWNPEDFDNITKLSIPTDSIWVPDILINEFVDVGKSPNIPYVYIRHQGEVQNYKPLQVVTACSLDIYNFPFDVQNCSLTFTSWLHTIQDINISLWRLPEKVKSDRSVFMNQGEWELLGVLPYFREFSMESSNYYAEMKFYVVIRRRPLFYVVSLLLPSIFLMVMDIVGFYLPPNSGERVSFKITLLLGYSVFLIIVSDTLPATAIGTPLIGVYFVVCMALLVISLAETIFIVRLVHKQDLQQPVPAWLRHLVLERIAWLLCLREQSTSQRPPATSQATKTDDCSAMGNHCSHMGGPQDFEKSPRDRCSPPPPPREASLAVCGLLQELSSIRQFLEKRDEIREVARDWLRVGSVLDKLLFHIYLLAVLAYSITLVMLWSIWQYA
The experiment in a line: Kinetic measurements (association, dissociation) at 5-HT3A receptors. The arrangement: expressed in transfected cells; host or cells: HEK 293. The class given is binding. As to conditions: calculated from kinetic rates, Equ (4), read-out: Kd(nM) (kon/koff).

For another assay, the target named is T18, 5-HT3AB receptors (Homo sapiens, UniProt O95264+P46098).
T18 sequence (P46098 24-478): T17 sequence (P46098 24-478)
T18 sequence (O95264 22-441): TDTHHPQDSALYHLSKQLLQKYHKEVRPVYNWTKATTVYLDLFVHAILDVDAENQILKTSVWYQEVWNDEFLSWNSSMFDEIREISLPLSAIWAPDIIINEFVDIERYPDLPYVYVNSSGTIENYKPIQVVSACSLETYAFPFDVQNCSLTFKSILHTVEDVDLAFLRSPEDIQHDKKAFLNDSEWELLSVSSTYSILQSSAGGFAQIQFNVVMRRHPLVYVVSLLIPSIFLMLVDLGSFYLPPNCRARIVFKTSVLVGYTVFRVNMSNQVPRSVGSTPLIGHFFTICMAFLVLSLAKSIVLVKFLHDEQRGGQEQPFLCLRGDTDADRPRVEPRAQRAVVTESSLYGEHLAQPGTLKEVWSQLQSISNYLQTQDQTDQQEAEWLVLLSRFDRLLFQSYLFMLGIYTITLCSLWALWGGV
Description: Kinetic measurements (association, dissociation) at 5-HT3AB receptors. The arrangement: expressed in transfected cells; host or cells: HEK 293. As to conditions: from kinetic rates, Equ (4), read-out: Kd(nM) (kon/koff). The assay is classed as binding.

The values that follow come from article PMC4220016, “The binding characteristics and orientation of a novel radioligand with distinct properties at 5-HT3A and 5-HT3AB receptors” (Neuropharmacology, 2014).

“And” between values parts separate entries of the source, which are not always exact repeats. Equal values may be shown once. Read-outs that look alike come from different tables or passages of the source.

T3 sequence (P46098 24-478 Y148C): as the sequence (P46098 24-478 E231C) above, with Y125C, C208E counted along it
T7 sequence (P46098 24-478 H180C): as the sequence (P46098 24-478 E231C) above, with H157C, C208E counted along it
T4 sequence (P46098 24-478 D184C): as the sequence (P46098 24-478 E231C) above, with D161C, C208E counted along it
T1 sequence (P46098 24-478 F221C): as the sequence (P46098 24-478 E231C) above, with F198C, C208E counted along it
T5 sequence (P46098 24-478 E124C): as the sequence (P46098 24-478 E231C) above, with E101C, C208E counted along it
T9 sequence (P46098 24-478 K107C): as the sequence (P46098 24-478 E231C) above, with K84C, C208E counted along it
T2 sequence (P46098 24-478 L121C): as the sequence (P46098 24-478 E231C) above, with L98C, C208E counted along it

In the case of `CN1CCN(c2nc3ccccc3nc2Cl)CC1` [[^3H]VUF10166] [2-chloro-3-(4-[^3H]methylpiperazin-1-yl)quinoxaline], the Kd on 5-HT3A receptor F226C was 1.59 ± 0.08 nM; at 5-HT3A receptor L126C, 0.89 ± 0.19 nM; on 5-HT3A receptor Y153C it was 2.03 ± 0.33 nM; at 5-HT3A receptor D189C it was more than 10 nM; at 5-HT3A receptor E129C, more than 10 nM; at 5-HT3A receptor E236C, more than 10 nM. The Kd on 5-HT3A receptor H185C was 0.96 ± 0.39 nM; at 5-HT3A receptor I71C, 0.23 ± 0.05 nM; on 5-HT3A receptor K112C it was 0.13 ± 0.03 nM; on 5-HT3A receptor N128C, 0.7 ± 0.1 nM; on 5-HT3A receptor Q151C, 1.82 ± 0.19 nM; on 5-HT3A receptor R145C it was 0.96 ± 0.35 nM. The Kd is more than 10 nM on 5-HT3A receptor T179C; more than 10 nM on 5-HT3A receptor W183C; more than 10 nM on 5-HT3A receptor W90C; more than 10 nM on 5-HT3A receptor Y143C; 0.16 nM on 5-HT3A receptors; 0.38 nM on 5-HT3AB receptors (first component). At 5-HT3AB receptors (second component (>3 nM)), the Kd is 22 nM and 22.4 nM.
